Reference: patent US10213415B2, “Compounds as opioid receptor modulators” (JANSSEN PHARMACEUTICA NV, priority 2004, dated 2019)
Values joined by “and” are separate entries in the source; they are usually repeats but may differ in a detail not shown here. Identical values can stand only once.

What was measured:
[1] = system: male CD-1 mice; assay: In Vivo Assay: Upper GI Tract Transit (MUGIT); conditions: Mus musculus, po, 1 h, p.o., read-out: upper GI transit (% ctrl)
Description: Methods: The animals used in these studies were male CD-1 mice, ave. wt. ˜30 g. Mice were housed under 12 h/12 h light/dark cycle, food & water ad lib. On the day of the experiment mice were assigned to experimental groups, including one vehicle-only group (=control). At 30 min before administration of carmine dye, animals were dosed with vehicle or vehicle-plus-compound, mice were returned to their home cages after drug administration. After administration of carmine, the animals were either returned to their home cages (non-stressed) or individually placed in the same metal cages as used in the fecal output or entire GI tract transit to induce a novel environment stress. One hour after administration of carmine, mice were sacrificed by cervical dislocation, the abdomen opened midventrally, the small intestine from pylorus to cecum was removed, the mesentery divided in order to lay the intestine straight & flat—without stretching. The total length of intestine and the length of carmine-dyed intestine were measured in order to determine the percent of the upper GI tract over which transit had occurred as follows: {(Length of carmine-dyed intestine)/(Total length of intestine)}×100=% upper GI transit. The data expressed were group means±SD (or s.e.m.) and data expressed as % of control.

[2] = system: male CD-1 mice; assay: In Vivo Assay: Stress-Induced Entire GI Tract Transit (MEGIT, MEGIT-NES, MEGIT-RS); parameters: species or system mouse; conditions: for MEGIT-RS entire GI transit 5 hr (% RS): dose 20 p.o., restraint stress; for MEGIT entire GI transit 6 hr % ctrl: acclimated mice
Description: Methods: The animals used in these studies are male CD-1 mice, ave. wt. ˜30 g. Procedure: Mice were housed in LAM under 12 h/12 h light/dark cycle, food & water ad lib. On the day before the experiments, the mice assigned to the “acclimated” (non-stressed) control group were placed into individual wire mesh-bottomed cages, provided food and water ad lib. The acclimated control group was in this new environment for 16-18 hrs prior to beginning the test. On the day of the experiment, mice assigned to experimental groups were housed in home cages were transported to procedure room and remain in their home cages until the start of the transit portion of the study. […] After the carmine marker was administered each mouse was placed in the novel environment cage. One hour after administration of carmine, the fecal pellet output of each animal was recorded. At one-hour intervals thereafter the fecal pellets were examined for the presence of carmine-dye. The number of mice that excreted a carmine-containing fecal pellet at the end of each hour post carmine administration was recorded, until all mice had excreted carmine in a fecal pellet or the end of 6 hrs post carmine administration, whichever occurred first. A variant of this novel environment stress (NES) paradigm is to use the same procedures of dye and compound administrations, but to use restraint (confinement in a small plastic tube for 3 hr) as a stressor (RS=restraint stress), followed by two hours in an individual cage (total of 5 hr fecal transit time). […] The mouse entire GI tract (MEGIT) transit test can thus be done in mice that are all acclimated (non-stressed), in which case the data are expressed as % control (vehicle only), or in mice that are exposed to NES or RS, in which cases the data are expressed as % of the vehicle treated NES or RS group.

[3] = target: T1, human delta subtype 2 opioid receptor (Homo sapiens, UniProt P41143); assay: Human Delta Opioid Receptor Binding Assay (CHO membranes, 3H-Naltrindole); conditions: read-out: hKi δ
T1 construct: purchased Perkin Elmer RBHODM400UA; host or cells: Chinese Hamster Ovary cells (recombinant expression)
T1 sequence (P41143 whole entry): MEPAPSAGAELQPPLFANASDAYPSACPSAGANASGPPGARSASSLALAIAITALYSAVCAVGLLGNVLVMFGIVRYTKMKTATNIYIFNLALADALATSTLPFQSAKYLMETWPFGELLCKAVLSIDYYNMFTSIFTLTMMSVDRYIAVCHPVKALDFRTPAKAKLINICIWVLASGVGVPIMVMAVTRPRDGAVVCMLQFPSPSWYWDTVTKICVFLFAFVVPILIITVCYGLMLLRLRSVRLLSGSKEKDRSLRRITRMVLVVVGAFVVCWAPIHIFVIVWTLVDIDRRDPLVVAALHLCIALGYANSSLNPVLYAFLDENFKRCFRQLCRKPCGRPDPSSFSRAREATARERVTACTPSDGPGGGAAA
Method in brief: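 Filtration binding on CHO-cell membranes expressing the human receptor, in 50 mM Tris pH 7.5 with 5 mM MgCl2, 30 min at room temperature; 3H-naltrindole diluted to 6 nM before mixing 1:1 with compound. Nonspecific binding defined with 1 μM unlabelled naltrindole; inhibition relative to no-inhibitor wells.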

[4] = target: T2, delta opioid receptor (Rattus norvegicus, UniProt P33533); assay: Rat Brain Delta Opioid Receptor Binding Assay-Version 1a ([3H]naltrindole); conditions: rat forebrain membranes, 0.1 nM [3H]naltrindole; margin of error 10-20%; read-out: r Ki δ Ver. 1a
T2 construct: from tissue; host or cells: forebrain of male Wistar rats
T2 sequence (P33533 whole entry): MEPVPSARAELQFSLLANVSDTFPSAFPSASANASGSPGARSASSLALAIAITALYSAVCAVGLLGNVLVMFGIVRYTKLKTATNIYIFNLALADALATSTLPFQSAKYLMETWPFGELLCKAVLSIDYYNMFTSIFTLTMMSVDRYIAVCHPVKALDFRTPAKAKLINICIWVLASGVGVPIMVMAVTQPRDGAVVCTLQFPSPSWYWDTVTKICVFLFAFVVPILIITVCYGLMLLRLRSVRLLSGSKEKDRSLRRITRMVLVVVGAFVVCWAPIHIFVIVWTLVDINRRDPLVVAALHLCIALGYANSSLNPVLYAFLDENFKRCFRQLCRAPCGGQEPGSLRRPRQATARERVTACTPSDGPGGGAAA
Description: Male, Wistar rats (150-250 g, VAF, Charles River, Kingston, N.Y.) were killed by cervical dislocation, and their brains removed and placed immediately in ice-cold Tris HCl buffer (50 mM, pH 7.4). The forebrains were separated from the remainder of the brain by a coronal transection, beginning dorsally at the colliculi and passing ventrally through the midbrain-pontine junction. After dissection, the forebrains were homogenized in Tris buffer in a Teflon®-glass homogenizer. The homogenate was diluted to a concentration of 1 g of forebrain tissue per 80 mL Tris and centrifuged at 39,000×g for 10 min. The pellet was resuspended in the same volume of Tris buffer containing 5 mM MgCl2 with several brief pulses from a Polytron homogenizer. This particulate preparation was used for the delta opioid binding assay. Following incubation with 0.1 nM of the delta selective ligand [^3H]naltrindole at 25° C. for 2.5 h in a 96-well plate with total 1 mL, the plate contents were filtered through Wallac filtermat B sheets on a Tomtec 96-well harvester. The filters were rinsed three times with 2 mL of 10 mM HEPES (pH 7.4), and dried in a microwave oven. To each sample area, Betaplate Scint scintillation fluid (LKB) was added and the resulting radioactivity quantified on a LKB (Wallac) 1205 BetaPlate liquid scintillation counter. Kd and Ki values were calculated using the GraphPad PRISM data analysis program.

[5] = system: rats; assay: Visceral Hyperalgesia Testing (colorectal balloon distention following zymosan); assay type: in vivo, rat; conditions: 30 mg/kg i.p., 5 rats, repeated distentions of 40 mmHg
Description: Method: Rats were chronically instrumented with EMG electrodes in the muscles of the anterior abdominal wall. Distention of an intracolonic balloon, using a barostat apparatus, evoked increases in the EMG recordings that are related to the pressure. Control responses are compared with repeat stimulation 4 hours after zymosan is administered to the colon (FIG. 1).

SMILES	response vs control in vivo at 30 mg [1]	Ki [3]	other results
Cc1cc(C(N)=O)cc(C)c1C[C@H](N)C(=O)N(Cc1cccc(C(=O)O)c1)[C@@H](C)c1nc(-c2ccccc2)c[nH]1 [Cpd 227]	93.9%		MEGIT-RS entire GI transit 5 hr (% RS) [2]: 100 % RS
COC(=O)c1cc(CN(C(=O)[C@@H](N)Cc2c(C)cc(C(N)=O)cc2C)[C@@H](C)c2nc(-c3ccccc3)c[nH]2)ccc1OC [Cpd 17]	37.3%		
Cc1cc(O)cc(C)c1C[C@H](N)C(=O)N(Cc1nc(-c2ccc(F)cc2)c(C)[nH]1)C(C)C [Cpd 163]		301 nM and 63 nM	
Cc1cc(O)cc(C)c1C[C@H](N)C(=O)N(Cc1ccccc1)[C@@H](C)c1nc(-c2ccccc2)c[nH]1 [Cpd 218]		189 nM	
Cc1ccccc1-c1nc(CN(C(=O)[C@@H](N)Cc2c(C)cc(O)cc2C)C(C)C)[nH]c1C [Cpd 165]		322 nM	
CC(C)N(Cc1nc(-c2ccccc2)c[nH]1)C(=O)[C@@H](N)Cc1ccc(O)cc1 [Cpd 195]		> 10000 nM	
Cc1cc(O)cc(C)c1C[C@H](N)C(=O)N(C)[C@H](C)c1nc(-c2ccccc2)c[nH]1 [Cpd 206]		275 nM	
COc1ccc(CN(C(=O)[C@@H](N)Cc2ccc(O)cc2)[C@@H](C)c2nc(-c3ccccc3)c[nH]2)cc1C(=O)O [Cpd 261]	87.7%		MEGIT-RS entire GI transit 5 hr (% RS) [2]: 103.6 % RS
COC(=O)c1ccc(CN(C(=O)[C@@H](N)Cc2c(C)cc(C(N)=O)cc2C)[C@@H](C)c2nc(-c3ccccc3)c[nH]2)o1 [Cpd 257]			Ki [4]: 14 nM
COc1ccc(CN(C(=O)[C@@H](N)Cc2c(C)cc(C(N)=O)cc2C)[C@@H](C)c2nc(-c3ccc(I)cc3)c[nH]2)cc1C(=O)O [Cpd 289]	76.4%		MEGIT-RS entire GI transit 5 hr (% RS) [2]: 14.1 % RS
Cc1cc(O)cc(C)c1C[C@H](N)C(=O)N(C)Cc1nc(-c2ccccc2)c[nH]1 [Cpd 199]		209 nM	
Cc1cc(O)cc(C)c1C[C@H](N)C(=O)N(Cc1nc(-c2ccccc2)c(C)[nH]1)C(C)C [Cpd 166]		300 nM and 375 nM	
CCN(C(=O)[C@@H](N)Cc1c(C)cc(O)cc1C)[C@H](C)c1nc(-c2ccccc2)c[nH]1 [Cpd 217]		506 nM	
Cc1cc(C(N)=O)cc(C)c1C[C@H](N)C(=O)N(Cc1ccc(C(=O)O)o1)[C@@H](C)c1nc(-c2ccccc2)c[nH]1 [Cpd 256]	89.7%		
Cc1cc(O)cc(C)c1C[C@H](N)C(=O)N(Cc1nc(-c2ccccc2)c[nH]1)C1CCCCC1 [Cpd 190]		285 nM	
COc1ccc(CN(C(=O)[C@@H](N)Cc2ccc(C(N)=O)cc2)[C@@H](C)c2nc(-c3ccccc3)c[nH]2)cc1C(=O)O [Cpd 4]			MEGIT-RS entire GI transit 5 hr (% RS) [2]: 100 % RS
Cc1cc(C(N)=O)cc(C)c1C[C@H](N)C(=O)N(Cc1ccccc1)[C@@H](C)c1nc(-c2ccccc2)c[nH]1 [Cpd 114]		49 nM	
C[C@H](c1nc(-c2ccccc2)c[nH]1)N(C)C(=O)[C@@H](N)Cc1ccc(C(N)=O)cc1 [Cpd 203]		501 nM	
Cc1cc(O)cc(C)c1C[C@H](N)C(=O)N(Cc1nc(-c2ccccc2)c[nH]1)C(C)C [Cpd 194]		103 nM	
Cc1cc(O)cc(C)c1C[C@H](N)C(=O)N(Cc1cccc(C(=O)O)c1)[C@@H](C)c1nc(-c2ccccc2)c[nH]1 [Cpd 48]	102%		Ki [4]: 0.24 nM
COC(=O)c1ccc(CN(C(=O)[C@@H](N)Cc2ccc(C(N)=O)cc2)[C@@H](C)c2nc(-c3ccccc3)c[nH]2)o1 [Cpd 303]			Ki [4]: 24.5 nM
COc1ccc(CN(C(=O)[C@@H](N)Cc2c(C)cc(C(N)=O)cc2C)[C@@H](C)c2nc(-c3ccccc3)c[nH]2)cc1-c1nnn[nH]1 [Cpd 8]	77.3%		
Cc1cc(C(N)=O)cc(C)c1C[C@H](N)C(=O)N(Cc1cccc(-c2nnn[nH]2)c1)[C@@H](C)c1nc(-c2ccccc2)c[nH]1 [Cpd 242]			MEGIT-RS entire GI transit 5 hr (% RS) [2]: 100 % RS
COc1ccc(CN(C(=O)[C@@H](N)Cc2c(C)cc(C(N)=O)cc2C)[C@@H](C)c2nc(-c3ccccc3)c[nH]2)cc1C(=O)O [Cpd 18]	37.5%		response vs control in vivo at 5 mg ([1]; dose 5 (mg)): 94.2%; response vs control in vivo at 10 mg ([1]; dose 10 (mg)): 99.6%; response vs control in vivo at 25 mg ([1]; dose 25 (mg)): 83%; response vs control in vivo at 50 mg ([1]; dose 50 (mg)): 69.9%; response vs control in vivo at 100 mg [1]: 41.2%; MEGIT-NES Entire GI transit 6 hr (% NES) ([2]; dose 30 p.o., novel environment stress): 80 % NES; hyperalgesic response to colorectal balloon distention following zymosan [5]: blocked the hyperalgesic response
Cc1cc(O)cc(C)c1C[C@H](N)C(=O)N(C)[C@@H](C)c1nc(-c2ccccc2)c[nH]1 [Cpd 207]		132 nM	
COc1ccc(CN(C(=O)[C@@H](N)Cc2c(C)cc(C(N)=O)cc2C)[C@@H](C)c2nc(-c3ccccc3)c[nH]2)cc1OC [Cpd 75]	71.1%	8.5 nM	response vs control in vivo at 60 mg ([1]; dose 60 (mg)): 56%; response vs control in vivo at 100 mg [1]: 45.6%; MEGIT entire GI transit 6 hr % ctrl ([2]; dose 30 p.o.): 125 % ctrl; MEGIT entire GI transit 6 hr % ctrl ([2]; dose 60 p.o.): 0 % ctrl; MEGIT entire GI transit 6 hr % ctrl ([2]; dose 100 p.o.): 0 % ctrl
